Assay results reported in patent publication EP1289507B1, “USE OF AN ALDOSTERONE ANTAGONIST FOR THE TREATMENT OR PROPHYLAXIS OF ALDOSTERONE-MEDIATED PATHOGENIC EFFECTS” (priority 2000, dated 2001).
Like-named read-outs stand apart in the source and are kept apart here.

Key:
[1] = Pharmacokinetics and tolerability in subjects with moderate hepatic impairment vs normal healthy subjects; format: in vivo, human subjects; conditions: for AUC(0-t): read-out: AUC (0-lqc), Least Squares Mean; for AUC(0-inf): read-out: AUC (0-∞), Least Squares Mean
[2] = Food effect pharmacokinetic studies, Japan and Ex-Japan; format: in vivo, Japanese (Japan) and European (Ex-Japan) subjects
Protocol: (§1) The Ex-Japan trials included (i) a single dose tolerability trial, and (ii) a multiple dose tolerability trial, and (iii) a food effect study.
(§2) Both single dose and multiple dose tolerability trials were conducted in Japan utilizing healthy male Japanese subjects. […] Six subjects who received the 100 mg dose also participated in the food effect treatment arm of the single dose tolerability trial.
Table A-11C contains the geometric least squares means for the fed and fasting regimens, the ratios of means and the corresponding 95% confidence intervals (CI) for the ratios of the means for the Japan and Ex-Japan food effect trials.
Each panel consisted of six subjects who were given eplerenone and two subjects who were given placebo.

[3] = 96 hours postdose; other tissues below the limit of detection; 20 mg/kg
[4] = test system: patients with hypertension; assay: Clinical efficacy in hypertension: randomized double-blind study, cuff and ambulatory blood pressure; format: in vivo
Protocol: A multicenter, randomized, double-blind, parallel group study was conducted in patients with hypertension. […] The study consisted of a two-week pretreatment period for completion of screening procedures and discontinuation of any current antihypertensive medication(s). The screening period was followed by a four-week single-blind placebo lead-in treatment period.
The primary efficacy measure was the change from baseline in cuff diastolic blood pressure measured at trough as compared to placebo. Secondary efficacy measures included changes in cuff assessed trough systolic blood pressure and changes in average 24-hour diastolic and systolic blood pressure assessed by ambulatory blood pressure monitoring. Safety was assessed by conducting routine clinical lab tests, physical exams, ECGs, and monitoring for adverse events.

[5] = test system: saline-loaded adrenalectomized rats treated with aldosterone; assay: Subcutaneous vs. oral administration: urinary Na/K in saline-loaded adrenalectomized rats treated with aldosterone; format: in vivo; conditions: antagonizing aldosterone-mediated renal effects
Protocol: Urinary sodium, potassium and water excretion were measured. The results are expressed as the ratio of excreted urinary sodium to potassium (Na/K) ± SEM.

[6] = test system: Volume Expanded Hypertensive Rats; conditions: averaged for 24 hours after three weeks
[7] = Multiple dose tolerability and pharmacokinetic trials, Japan and Ex-Japan; format: in vivo, Japanese (Japan) and European (Ex-Japan) subjects; conditions: Japanese male subjects, 400 mg daily for seven days, six subjects
Protocol: as §1, §2
No formal statistical analyses were performed and the actual derived data is presented for comparison purposes only.
A multiple-dose safety and pharmacokinetic study among Japanese subjects was conducted in Japan. This was a single-blind, randomized, placebo-controlled study. […] Serial blood and urine samples were collected throughout the study for measurement of pharmacokinetic, renal, and hormonal parameters after a single dose on Day 1 and after seven days of dosing.

[8] = Pharmacokinetics and absorption after IV and oral [14C]eplerenone in the rat; format: in vivo; conditions: for half-life / clearance: iv, IV 15 mg/kg; for half-life / clearance / Cmax / bioavailability: 15 mg/kg; for Cmax / bioavailability: po; for Cmax: Cmax of total eplerenone
Protocol: Plasma, urine and fecal samples were analyzed for total radioactivity.

[9] = human, in vivo, 400 mg, Single Dose, Moderate Impairment
[10] = human, in vivo, 400 mg, Single Dose, Normal

For `COC(=O)[C@@H]1CC2=CC(=O)CC[C@]2(C)[C@@]23O[C@@H]2C[C@@]2(C)[C@@H](CC[C@@]24CCC(=O)O4)[C@H]13` [Eplerenone, Pregn-4-ene-7,21-dicarboxylic acid, 9,11-epoxy-17-hydroxy-3-oxo-, γ-lactone, methyl ester, (7α, 11α, 17β)-], the “AUC greater among subjects with moderate hepatic impairment than matched normal subjects” value ([1]; 400 mg, single dosing, b445 and b448 state it for single and multiple dose) was 41-50%, the “Ratio of Means AUC (0-24)/AUC0-co)” value ([1]; Moderate Hepatic Impairment) was 0.95 and the “AUC (0-24), Ratio of Means Moderate/Normal” value ([1]; Multiple Dose) was 1.456. The “CL/F, Ratio of Means Moderate/Normal” value ([1]; Multiple Dose) was 0.687, the “Cmax, Ratio of Means Moderate/Normal” value ([1]; Multiple Dose) was 1.037 and the “XU(0-48), Ratio of Means Moderate/Normal” value ([1]; Multiple Dose) was 2.007. For the same compound, the “XU(0-48), Least Squares Mean” value ([1]; Multiple Dose, Moderate Impairment) was 14.9 mg, the “XU(0-48), Least Squares Mean” value ([1]; Multiple Dose, Normal) was 7.4 mg and the “Ratio of Means AUC (0-24)/AUC0-co)” value ([1]; Normal) was 1.02. The “AUC (0-lqc), Ratio of Means Moderate/Normal” value ([1]; Single Dose) was 1.413, the “AUC (0-∞), Ratio of Means Moderate/Normal” value ([1]; Single Dose) was 1.497 and the “CL/.F, Ratio of Means Moderate/Normal” value ([1]; Single Dose) was 0.668. For the same compound, the “Cmax, Ratio of Means Moderate/Normal” value ([1]; Single Dose) was 0.894, the “XU(0-48), Ratio of Means Moderate/Normal” value ([1]; Single Dose) was 1.016 and the “XU(0-48), Least Squares Mean” value ([1]; Single Dose, Moderate Impairment) was 7.9 mg. The “XU(0-48), Least Squares Mean” value ([1]; Single Dose, Normal) was 7.8 mg, the “AUC higher in moderate impairment compared to matched normal subjects” value ([1]; following multiple dosing 400 mg QD) was 46% and the AUC tau at 24 h ([1]; human, in vivo, 400 mg, Multiple Dose, Moderate Impairment, read-out: AUC (0-24), Least Squares Mean) was 43800 ng·h/mL. It also gave a CL/F ([1]; human, in vivo, 400 mg, Multiple Dose, Moderate Impairment, read-out: CL/F, Least Squares Mean (converted)) of 152 mL/min, a CL/F ([1]; human, in vivo, 400 mg, Multiple Dose, Moderate, read-out: CL/F, Mean (converted)) of 149 mL/min and an AUC tau at 24 h ([1]; human, in vivo, 400 mg, Multiple Dose, Normal, read-out: AUC (0-24), Least Squares Mean) of 30100 ng·h/mL. The CL/F ([1]; human, in vivo, 400 mg, Multiple Dose, Normal, read-out: CL/F, Least Squares Mean (converted)) was 222 mL/min, the CL/F ([1]; human, in vivo, 400 mg, Multiple Dose, Normal, read-out: CL/F, Mean (converted)) was 230 mL/min and the Tmax ([1]; human, in vivo, 400 mg, Multiple Dose, Normal, read-out: Tmax, Least Squares Mean) was 2.1 h. For the same compound, the AUC(0-t) [1, 9] was 42800 ng·h/mL, the AUC(0-inf) [1, 9] was 43600 ng·h/mL and the CL/F ([1]; human, in vivo, 400 mg, Single Dose, Moderate Impairment, read-out: CL/.F, Least Squares Mean (converted)) was 153 mL/min. For the same compound, the CL/F ([1]; human, in vivo, 400 mg, Single Dose, Moderate, read-out: CL/F, Mean (converted)) was 175 mL/min, the AUC(0-t) [1, 10] was 30300 ng·h/mL and the AUC(0-inf) [1, 10] was 29100 ng·h/mL. For the same compound, the CL/F ([1]; human, in vivo, 400 mg, Single Dose, Normal, read-out: CL/.F, Least Squares Mean (converted)) was 228 mL/min, the CL/F ([1]; human, in vivo, 400 mg, Single Dose, Normal, read-out: CL/F, Mean (converted)) was 254 mL/min and the AUC tau at 24 h ([1]; human, in vivo, 400 mg, linear kinetics assessment, Moderate Hepatic Impairment, read-out: Multiple Dose AUC (0-24), Least Squares Mean) was 47200 ng·h/mL. For the same compound, the AUC tau at 24 h ([1]; human, in vivo, 400 mg, linear kinetics assessment, Normal, read-out: Multiple Dose AUC (0-24), Least Squares Mean) was 29300 ng·h/mL, the “subjects with adverse events” value ([1]; subjects with moderate hepatic impairment) was 44% and the “subjects with adverse events” value ([1]; subjects with normal hepatic function) was 35%. For the same compound, the “AUC (0-lqc), Mean Ratio” value ([2]; Ex-Japan Food Effect Study) was 1.079, the “Cmax, Mean Ratio (fed/fasted)” value ([2]; Ex-Japan Food Effect Study) was 0.814 and the “AUC (0-inf), Mean Ratio” value ([2]; Japan Food Effect Study) was 1.218. The “AUC (0-lqc), Mean Ratio” value ([2]; Japan Food Effect Study) was 1.218, the “Cmax, Mean Ratio (fed/fasted)” value ([2]; Japan Food Effect Study) was 1.157 and the “AUC (0-inf), Mean Ratio” value ([2]; human, in vivo) was 1.079. For the same compound, the “concentrations of radioactivity in cecum, kidneys, large intestine and liver” value [3] was “less than 0.024 µg equivalents/g”, the “ABPM DBP, adjusted mean change from baseline to final visit” value (“ABPM DBP, adjusted mean change” for short) ([4]; 50 mg/day (25 BID)) was -4.1 mm Hg and the “ABPM SBP, adjusted mean change from baseline to final visit” value (shortened to “ABPM SBP, adjusted mean change”) ([4]; 50 mg/day (25 BID)) was -7.5 mm Hg. For the same compound, the “Cuff SBP, adjusted mean change from baseline to final visit” value (“Cuff SBP, adjusted mean change” below) ([4]; 50 mg/day (25 BID)) was -8.1 mm Hg, the “Cuff DBP, adjusted mean change from baseline to final visit” value (from here on “Cuff DBP, adjusted mean change”) ([4]; 50 mg/day (25 BID), eight weeks) was -4.4 mm Hg and the “ABPM DBP, adjusted mean change” value ([4]; 50 mg/day (50 QD)) was -5.1 mm Hg. For the same compound, the “ABPM SBP, adjusted mean change” value ([4]; 50 mg/day (50 QD)) was -6.2 mm Hg, the “Cuff DBP, adjusted mean change” value ([4]; 50 mg/day (50 QD)) was -4.5 mm Hg and the “Cuff SBP, adjusted mean change” value ([4]; 50 mg/day (50 QD)) was -4.4 mm Hg. The “ABPM DBP, adjusted mean change” value ([4]; 100 mg/day (50 BID)) was -6.6 mm Hg, the “ABPM SBP, adjusted mean change” value ([4]; 100 mg/day (50 BID)) was -11.6 mm Hg and the “Cuff DBP, adjusted mean change” value ([4]; 100 mg/day (50 BID)) was -7.8 mm Hg. The “Cuff SBP, adjusted mean change” value ([4]; 100 mg/day (50 BID)) was -11.7 mm Hg, the “ABPM DBP, adjusted mean change” value ([4]; 100 mg/day (100 QD)) was -5.6 mm Hg and the “ABPM SBP, adjusted mean change” value ([4]; 100 mg/day (100 QD)) was -9.6 mm Hg. For the same compound, the “Cuff DBP, adjusted mean change” value ([4]; 100 mg/day (100 QD)) was -4.4 mm Hg, the “Cuff SBP, adjusted mean change” value ([4]; 100 mg/day (100 QD)) was -7.9 mm Hg and the “ABPM DBP, adjusted mean change” value ([4]; 400 mg/day (200 BID)) was -9.0 mm Hg. The “ABPM SBP, adjusted mean change” value ([4]; 400 mg/day (200 BID)) was -16.1 mm Hg, the “Cuff DBP, adjusted mean change” value ([4]; 400 mg/day (200 BID)) was -8.9 mm Hg and the “Cuff SBP, adjusted mean change” value ([4]; 400 mg/day (200 BID)) was -14.8 mm Hg. The “ABPM DBP, adjusted mean change” value ([4]; 400 mg/day (400 QD)) was -7.7 mm Hg, the “ABPM SBP, adjusted mean change” value ([4]; 400 mg/day (400 QD)) was -13.7 mm Hg and the “Cuff DBP, adjusted mean change” value ([4]; 400 mg/day (400 QD)) was -8.7 mm Hg. For the same compound, the “Cuff SBP, adjusted mean change” value ([4]; 400 mg/day (400 QD)) was -15.0 mm Hg, the “Peak to trough ratios” value ([4]; QD and BID regimens, all doses) was 1.04 - 1.10 and the gynecomastia ([4]; eight-week double-blind treatment) was “no reports of gynecomastia”. The tolerability ([4]; incidence of adverse events similar to placebo) was “well tolerated”, the “efficacy of subcutaneous injection vs oral administration” value [5] was “better efficacy than oral administration” and the HR ([6]; 100 mg/kg s.c.) was 352 ± 4 beats/min. It also gave an SAP ([6]; 100 mg/kg s.c.) of 155 ± 7 mmHg, an HR ([6]; 200 mg/kg s.c.) of 339 ± 4 beats/min and an SAP ([6]; 200 mg/kg s.c.) of 174 ± 5 mmHg. The adverse events [7] was “mild fatigue on Day 2”, the “systemic availability of total radioactivity” value ([8]; oral 15 mg/kg, female rat) was 66.4% and the “mean Cmax of total radioactivity” value ([8]; oral 15 mg/kg, female rats) was 7.67 µg equivalents/mL. The “systemic availability of total radioactivity” value ([8]; oral 15 mg/kg, male rat) was 59.6%, the “mean Cmax of total radioactivity” value ([8]; oral 15 mg/kg, male rats) was 7.64 µg equivalents/mL and the half-life ([8]; rat, plasma, elimination half-life of eplerenone, female rat) was 1.14 h. It also gave a half-life ([8]; rat, plasma, elimination half-life of total eplerenone, female rat, closed plus open form) of 1.14 h, a half-life ([8]; rat, plasma, elimination half-life of total eplerenone, male rat, lactone ring closed form plus open form) of 1.01 h and a clearance ([8]; rat, plasma, plasma clearance (CL) of eplerenone, female rat) of 20 mL/min/kg. For the same compound, the clearance ([8]; rat, plasma, plasma clearance (CL) of total eplerenone, female rat) was 11.6 mL/min/kg, the clearance ([8]; rat, plasma, plasma clearance (CL) of total eplerenone, male rat) was 16.4 mL/min/kg and the Cmax ([8]; rat, plasma, oral 15 mg/kg, female rat) was 6350 ng/mL. The Cmax ([8]; rat, plasma, oral 15 mg/kg, male rat) was 3200 ng/mL, the bioavailability ([8]; rat, plasma, systemic availability of eplerenone, oral 15 mg/kg, female rat) was 66.1% and the bioavailability ([8]; rat, plasma, systemic availability of eplerenone, oral 15 mg/kg, male rat) was 25.6%. For the same compound, the bioavailability ([8]; rat, plasma, systemic availability of total eplerenone, oral 15 mg/kg, female rat) was 74.2%, the bioavailability ([8]; rat, plasma, systemic availability of total eplerenone, oral 15 mg/kg, male rat) was 29.4% and the Tmax ([8]; rat, plasma, oral 15 mg/kg, male rats) was 0.5 h.
